Test results: patent US5610310A, “Cyclic lipid derivatives as potent PAF antagonists” (Pohang Iron & Steel Co., Ltd, priority 1995, dated 1997)
pIC50, pKi: −log10 of the molar value.

Columns and labels:
[1] = test system: PAF-induced platelet aggregation, rabbit platelet-rich plasma; assay: Inhibitory action on PAF-induced platelet aggregation; type: cell-based, rabbit (New Zealand white); conditions: Oryctolagus cuniculus, rabbit PRP, PAF 5×10^-9 M, 37° C.
Procedure: Inhibitory action on PAF-induced platelet aggregation Blood was collected from the […] of conscious New Zealand white male rabbits weighing 2 to 3 kg using citric acid as an anticoagulant (one volume pan of 3% citric acid relative to 9 volume parts of the whole blood). […] PRP was diluted with PPP to adjust the number of platelets to about 3×10^5 /μl. […] Platelet aggregation was then examined by means of turbidimetry [Born, Nature, 194, 927(1962)] with dual channel aggegometer (Chrono-Log. Corp., Havertown, Pa.). As the control, physiological saline without test sample was used. The platelet aggregation inhibiting activities of the test sample are expressed as IC50, that is the concentration of the compound at which 50% of the aggregation is inhibited.

[2] = target: T1, PAF receptor (rabbit platelet membranes) (Oryctolagus cuniculus, UniProt G1TEI7); assay: PAF Receptor Binding Assay; conditions: 0.6 nM [^3 H]C18 -PAF, 60 minutes, room temperature, calculated as IC50/2
T1 construct: Rabbit platelets were prepared by centrifugation and washing; tissue Pel-Freez (Rogers, AR); host or cells: rabbit platelets (washed, from citrated whole blood; lysed membranes)
Procedure: PAF Receptor Binding Assay Citrated whole rabbit blood was obtained from Pel-Freez(Rogers, AR). Rabbit platelets were prepared by centrifugation and washing. The platelets were lysed by freeze-thawing and sonification; Platelet membranes were prepared by centrifugation and washing. Final membrane preparation were stored frozen in 10 mM Tris/5 mM MgCl2 /2 mM EDTA (TME buffer, pH 7.0) with 0.25M sucrose added for membrane stabilization. […] The final volume of the assay was 100 μl. […] The […] and removed. The bound radioactivity was quantitated with a Berthold TLC-Linear Analyzer model LB2842. […] Experiments were repeated at least once. […] Ki values of inhibitory binding constants were calculated according to the methods of the literature[Cheng et al., Biochem.

T1 sequence (G1TEI7 1-342): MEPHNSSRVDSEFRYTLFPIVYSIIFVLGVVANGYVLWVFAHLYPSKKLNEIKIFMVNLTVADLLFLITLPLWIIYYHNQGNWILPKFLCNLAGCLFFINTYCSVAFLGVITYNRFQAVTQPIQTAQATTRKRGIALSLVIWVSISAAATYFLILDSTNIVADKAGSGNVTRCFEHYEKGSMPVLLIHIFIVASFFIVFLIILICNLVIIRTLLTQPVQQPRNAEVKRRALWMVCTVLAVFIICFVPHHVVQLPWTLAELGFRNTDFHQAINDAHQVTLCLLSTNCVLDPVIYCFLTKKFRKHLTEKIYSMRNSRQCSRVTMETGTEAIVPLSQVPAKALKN

Compound	pIC50 [1]	pKi [2]
CCCCCCCCCCCCCCCCCCNC(=O)OC[C@H]1C[C@H](COCCCC[n+]2cccc3ccccc32)S1 (relative stereo) [Example 35, trans-N-[4-[[4-[[(Octadecylcarbamoyl)oxy]methyl]-2-thietanyl]methoxy]butyl]quinolinium bromide]	6.56	–
CCCCCCCCCCCCCCCCCCNC(=O)OC[C@@H]1C[C@@H](COC(=O)N(Cc2cccc[n+]2CC)C(=O)c2ccccc2OC)S1 (relative stereo) [Example 30]	7.08	–
CCCCCCCCCCCCCCCCCCNC(=O)OC[C@H]1C[C@H](COC(=O)N(Cc2cccc[n+]2CC)C(C)=O)S1 (relative stereo) [Example 27, trans-2-[[N-Acetyl-N-[[[4-[[(Octadecylcarbamoyl)oxy]methyl]-2-thietanyl]methoxy]carbonyl]amino]methyl]-1-ethyl-pyridinium chloride]	7.24	8.37
CCCCCCCCCCCCCCCCCCNC(=O)OCC1(COC(=O)N(Cc2cccc[n+]2CC)C(C)=O)CCCC1 [Example 16, 2-[[N-Acetyl-N-[[[1-[[(octadecylcarbamoyl)oxy]methyl]-1-cyclopentyl]methoxy]carbonyl]amino]methyl]-1-ethyl-pyridinium iodide]	6.24	8.42
CCCCCCCCCCCCCCCCCCNC(=O)OC[C@H]1C[C@H](COC(=O)CCCC[n+]2cccc3ccccc32)S1 (relative stereo) [Example 34, trans-N-[4-[[[4-[[(Octadecylcarbamoyl)oxy]methyl]-2-thietanyl]methoxy]carbonyl]butyl]quinolinium bromide]	6.46	–
CCCCCCCCCCCCCCCCCCNC(=O)OC[C@H]1C[C@H](COC(=O)N(Cc2cccc[n+]2CC)C(C)=O)C1 [Example 19, trans-2-[[N-Acetyl-N-[[[3-[[(octadecylcarbamoyl)oxy]methyl]-1-cyclobutyl]methoxy]carbonyl]amino]methyl]-1-ethyl-pyridinium iodide]	7.25	8.37
CCCCCCCCCCCCCCCCOCC1(COC(=O)CCCC[n+]2cccc3ccccc32)CSC1 [Example 42, N-[4-[[[3-[(Hexadecyoxy)methyl]-3-thietanyl]methoxy]carbonyl]butyl]quinolinium bromide]	6.18	–

The remaining molecules from weak to strong by pIC50 [1], led by results:

pIC50 [1]	pKi [2]	Compound
5.94	–	CCCCCCCCCCCCCCCCCCNC(=O)OCC1(COC(=O)CCCC[n+]2ccsc2)CCCC1 [Example 22, 3-[4-[[[1-[[(Octadecylcarbamoyl)oxy]methyl]-1-cyclopentyl]methoxy]carbonyl]butyl]thiazolium bromide]
6.66	6.96	CCCCCCCCCCCCCCCCOCC1(COC(=O)N(Cc2cccc[n+]2CC)C(C)=O)COC1 [Example 9, 2-[[N-Acetyl-N-[[[3-[(hexadecyloxy)methyl]-3-oxetanyl]methoxy]carbonyl]amino]methyl]-1-ethyl-pyridinium iodide]
7.16	–	CCCCCCCCCCCCCCCCNC(=O)OC[C@@H]1C[C@@H](COC(=O)N(Cc2cccc[n+]2CC)C(=O)c2ccccc2OC)S1 (relative stereo) [Example 31, trans-2-[[N-(2-Methoxy)benzoyl-N-[[[4-[[(hexadecylcarbamoyl)oxy]methyl]-2-thietanyl]methoxy]carbonyl]amino]methyl]1-ethyl-pyridinium chloride]
7.24	7.52	CCCCCCCCCCCCCCCCCCNC(=O)OCC1(COC(=O)CCCCC[n+]2cccc3ccccc32)CSC1 [Example 41, N-[5-[[[3-[[(Octadecylcarbamoyl)oxy]methyl]-3-thietanyl]methoxy]carbonyl]pentyl]quinolinium bromide]
7.68	8.01	CCCCCCCCCCCCCCCCNC(=O)OC[C@H]1C[C@H](COC(=O)N(Cc2cccc[n+]2CC)C(C)=O)S1 (relative stereo) [Example 29, trans-2-[[N-Acetyl-N-[[[4-[[(hexadecylcarbamoyl)oxy]methyl]-2-thietanyl]methoxy]carbonyl]amino]methyl]-1-ethyl-pyridinium chloride]
